In ChEMBL document CHEMBL3991601, “The target landscape of clinical kinase drugs” (Science, 2017):
Activity calls are given as the source filed them. For most assays here, no stated cut-off is given here; in the data, actives have a measured Kd and inactives only a lower limit.

Legend:
Ephrin type-B receptor 2 = target: T1, Ephrin type-B receptor 2 (Homo sapiens, UniProt P29323)
T1 sequence (P29323 whole entry): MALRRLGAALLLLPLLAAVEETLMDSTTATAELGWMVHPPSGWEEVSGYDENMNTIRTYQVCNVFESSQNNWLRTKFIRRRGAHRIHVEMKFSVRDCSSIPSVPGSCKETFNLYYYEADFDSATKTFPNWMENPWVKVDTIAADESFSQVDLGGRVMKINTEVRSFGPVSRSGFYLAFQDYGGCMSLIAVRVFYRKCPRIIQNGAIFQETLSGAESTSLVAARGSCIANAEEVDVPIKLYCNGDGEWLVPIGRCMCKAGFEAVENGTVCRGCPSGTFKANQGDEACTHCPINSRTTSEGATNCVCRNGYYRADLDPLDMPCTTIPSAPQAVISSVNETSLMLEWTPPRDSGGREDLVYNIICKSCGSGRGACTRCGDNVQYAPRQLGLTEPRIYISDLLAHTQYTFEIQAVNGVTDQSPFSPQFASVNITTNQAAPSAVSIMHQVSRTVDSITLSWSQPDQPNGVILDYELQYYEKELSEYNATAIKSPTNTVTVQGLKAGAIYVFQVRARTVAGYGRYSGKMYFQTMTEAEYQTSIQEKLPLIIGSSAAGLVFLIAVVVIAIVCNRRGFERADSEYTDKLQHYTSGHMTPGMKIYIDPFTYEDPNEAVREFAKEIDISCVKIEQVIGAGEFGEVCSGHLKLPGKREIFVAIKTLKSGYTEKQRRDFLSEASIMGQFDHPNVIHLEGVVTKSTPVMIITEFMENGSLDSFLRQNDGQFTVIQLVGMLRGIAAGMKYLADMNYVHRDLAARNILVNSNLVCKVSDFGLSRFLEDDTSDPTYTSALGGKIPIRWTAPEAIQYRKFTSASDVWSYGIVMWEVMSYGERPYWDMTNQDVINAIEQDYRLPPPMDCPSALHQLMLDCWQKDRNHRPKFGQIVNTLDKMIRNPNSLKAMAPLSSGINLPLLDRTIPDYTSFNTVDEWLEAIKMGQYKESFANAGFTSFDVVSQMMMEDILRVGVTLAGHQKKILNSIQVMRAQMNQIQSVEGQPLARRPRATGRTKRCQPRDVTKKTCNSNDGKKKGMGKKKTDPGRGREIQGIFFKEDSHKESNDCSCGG

[1] = target: T2, Ferrochelatase, mitochondrial (Homo sapiens, UniProt P22830)
T2 sequence (P22830 whole entry): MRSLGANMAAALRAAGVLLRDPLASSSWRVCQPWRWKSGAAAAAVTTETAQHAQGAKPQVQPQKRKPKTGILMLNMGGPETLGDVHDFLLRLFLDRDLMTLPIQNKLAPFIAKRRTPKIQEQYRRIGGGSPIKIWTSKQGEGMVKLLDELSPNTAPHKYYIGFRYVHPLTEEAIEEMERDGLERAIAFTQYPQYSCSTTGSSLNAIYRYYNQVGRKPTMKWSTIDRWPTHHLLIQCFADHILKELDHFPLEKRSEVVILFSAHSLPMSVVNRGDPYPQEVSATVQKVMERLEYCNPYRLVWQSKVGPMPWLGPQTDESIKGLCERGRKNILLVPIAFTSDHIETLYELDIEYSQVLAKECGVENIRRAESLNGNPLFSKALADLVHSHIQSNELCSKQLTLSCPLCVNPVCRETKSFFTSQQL

[2] = target: T3, Inhibitor of nuclear factor kappa-B kinase subunit epsilon (Homo sapiens, UniProt Q14164)
T3 sequence (Q14164 whole entry): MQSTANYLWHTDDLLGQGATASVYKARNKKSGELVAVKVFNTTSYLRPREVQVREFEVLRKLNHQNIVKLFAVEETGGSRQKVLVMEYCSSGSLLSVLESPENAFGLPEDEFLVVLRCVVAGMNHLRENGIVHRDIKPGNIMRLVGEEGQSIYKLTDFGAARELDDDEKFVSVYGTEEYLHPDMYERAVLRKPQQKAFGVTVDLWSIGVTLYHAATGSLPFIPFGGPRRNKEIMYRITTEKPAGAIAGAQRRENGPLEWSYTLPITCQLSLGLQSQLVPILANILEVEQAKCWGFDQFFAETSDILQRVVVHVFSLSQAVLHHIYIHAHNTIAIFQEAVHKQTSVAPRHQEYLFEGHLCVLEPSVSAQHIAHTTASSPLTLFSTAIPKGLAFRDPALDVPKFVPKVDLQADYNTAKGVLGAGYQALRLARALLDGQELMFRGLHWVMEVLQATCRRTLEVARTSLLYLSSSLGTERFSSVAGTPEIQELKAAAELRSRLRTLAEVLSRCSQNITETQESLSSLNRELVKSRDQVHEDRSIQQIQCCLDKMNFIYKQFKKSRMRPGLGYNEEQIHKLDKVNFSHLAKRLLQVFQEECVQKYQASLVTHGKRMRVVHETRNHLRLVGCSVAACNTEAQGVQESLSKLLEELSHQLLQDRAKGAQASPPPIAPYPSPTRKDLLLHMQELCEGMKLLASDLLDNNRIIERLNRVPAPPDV

[3] = target: Mitogen-activated protein kinase 11 (Homo sapiens, UniProt Q15759)
Chain of Mitogen-activated protein kinase 11 (Q15759 whole entry): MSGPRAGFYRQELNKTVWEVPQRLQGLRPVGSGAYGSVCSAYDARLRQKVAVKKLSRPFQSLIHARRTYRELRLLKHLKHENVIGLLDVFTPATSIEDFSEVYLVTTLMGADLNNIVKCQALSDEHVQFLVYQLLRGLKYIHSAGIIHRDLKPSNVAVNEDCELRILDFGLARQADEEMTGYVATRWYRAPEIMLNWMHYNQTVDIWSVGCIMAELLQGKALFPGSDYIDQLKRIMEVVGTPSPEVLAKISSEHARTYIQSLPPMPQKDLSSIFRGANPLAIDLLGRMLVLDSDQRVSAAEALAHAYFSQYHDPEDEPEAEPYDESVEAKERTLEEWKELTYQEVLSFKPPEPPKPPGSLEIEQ

Pyridoxal kinase = target: T4, Pyridoxal kinase (Homo sapiens, UniProt O00764)
T4 sequence (O00764 whole entry): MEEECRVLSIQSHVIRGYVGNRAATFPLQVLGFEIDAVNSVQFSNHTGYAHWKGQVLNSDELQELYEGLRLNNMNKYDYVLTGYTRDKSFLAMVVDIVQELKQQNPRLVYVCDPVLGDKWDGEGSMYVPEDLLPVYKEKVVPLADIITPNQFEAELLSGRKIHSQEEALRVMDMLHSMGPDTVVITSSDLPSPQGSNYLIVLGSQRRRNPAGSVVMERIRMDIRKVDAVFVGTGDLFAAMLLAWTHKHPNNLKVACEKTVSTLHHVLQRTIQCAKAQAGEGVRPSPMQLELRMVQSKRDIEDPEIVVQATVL

[4] = target: Serine/threonine-protein kinase N2 (Homo sapiens, UniProt Q16513)
Chain of Serine/threonine-protein kinase N2 (Q16513 whole entry): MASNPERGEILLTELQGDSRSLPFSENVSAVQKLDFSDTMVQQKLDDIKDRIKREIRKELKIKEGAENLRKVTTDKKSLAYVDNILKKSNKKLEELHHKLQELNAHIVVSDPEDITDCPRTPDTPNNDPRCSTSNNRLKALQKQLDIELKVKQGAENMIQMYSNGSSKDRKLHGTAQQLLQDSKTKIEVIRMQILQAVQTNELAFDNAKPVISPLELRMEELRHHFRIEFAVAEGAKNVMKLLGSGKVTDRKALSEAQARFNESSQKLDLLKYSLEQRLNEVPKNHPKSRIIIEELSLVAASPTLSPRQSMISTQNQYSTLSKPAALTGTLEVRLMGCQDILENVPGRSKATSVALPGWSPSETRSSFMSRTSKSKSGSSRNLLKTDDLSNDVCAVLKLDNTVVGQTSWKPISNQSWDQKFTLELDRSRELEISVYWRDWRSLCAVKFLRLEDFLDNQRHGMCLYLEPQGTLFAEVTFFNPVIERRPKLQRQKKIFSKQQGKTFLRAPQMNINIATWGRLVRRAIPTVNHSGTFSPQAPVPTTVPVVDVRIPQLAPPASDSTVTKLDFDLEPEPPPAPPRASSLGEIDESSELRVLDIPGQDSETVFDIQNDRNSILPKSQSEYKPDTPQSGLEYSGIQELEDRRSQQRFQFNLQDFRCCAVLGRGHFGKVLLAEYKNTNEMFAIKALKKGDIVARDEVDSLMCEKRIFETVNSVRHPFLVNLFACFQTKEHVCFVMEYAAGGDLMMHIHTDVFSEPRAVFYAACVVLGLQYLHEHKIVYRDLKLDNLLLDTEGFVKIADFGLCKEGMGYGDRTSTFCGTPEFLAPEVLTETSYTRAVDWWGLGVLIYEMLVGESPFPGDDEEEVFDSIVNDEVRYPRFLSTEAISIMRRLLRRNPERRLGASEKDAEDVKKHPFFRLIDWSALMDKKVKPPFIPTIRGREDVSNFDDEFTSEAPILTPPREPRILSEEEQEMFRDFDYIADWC

[5] = target: STE20-like serine/threonine-protein kinase (Homo sapiens, UniProt Q9H2G2)
Chain of STE20-like serine/threonine-protein kinase (Q9H2G2 whole entry): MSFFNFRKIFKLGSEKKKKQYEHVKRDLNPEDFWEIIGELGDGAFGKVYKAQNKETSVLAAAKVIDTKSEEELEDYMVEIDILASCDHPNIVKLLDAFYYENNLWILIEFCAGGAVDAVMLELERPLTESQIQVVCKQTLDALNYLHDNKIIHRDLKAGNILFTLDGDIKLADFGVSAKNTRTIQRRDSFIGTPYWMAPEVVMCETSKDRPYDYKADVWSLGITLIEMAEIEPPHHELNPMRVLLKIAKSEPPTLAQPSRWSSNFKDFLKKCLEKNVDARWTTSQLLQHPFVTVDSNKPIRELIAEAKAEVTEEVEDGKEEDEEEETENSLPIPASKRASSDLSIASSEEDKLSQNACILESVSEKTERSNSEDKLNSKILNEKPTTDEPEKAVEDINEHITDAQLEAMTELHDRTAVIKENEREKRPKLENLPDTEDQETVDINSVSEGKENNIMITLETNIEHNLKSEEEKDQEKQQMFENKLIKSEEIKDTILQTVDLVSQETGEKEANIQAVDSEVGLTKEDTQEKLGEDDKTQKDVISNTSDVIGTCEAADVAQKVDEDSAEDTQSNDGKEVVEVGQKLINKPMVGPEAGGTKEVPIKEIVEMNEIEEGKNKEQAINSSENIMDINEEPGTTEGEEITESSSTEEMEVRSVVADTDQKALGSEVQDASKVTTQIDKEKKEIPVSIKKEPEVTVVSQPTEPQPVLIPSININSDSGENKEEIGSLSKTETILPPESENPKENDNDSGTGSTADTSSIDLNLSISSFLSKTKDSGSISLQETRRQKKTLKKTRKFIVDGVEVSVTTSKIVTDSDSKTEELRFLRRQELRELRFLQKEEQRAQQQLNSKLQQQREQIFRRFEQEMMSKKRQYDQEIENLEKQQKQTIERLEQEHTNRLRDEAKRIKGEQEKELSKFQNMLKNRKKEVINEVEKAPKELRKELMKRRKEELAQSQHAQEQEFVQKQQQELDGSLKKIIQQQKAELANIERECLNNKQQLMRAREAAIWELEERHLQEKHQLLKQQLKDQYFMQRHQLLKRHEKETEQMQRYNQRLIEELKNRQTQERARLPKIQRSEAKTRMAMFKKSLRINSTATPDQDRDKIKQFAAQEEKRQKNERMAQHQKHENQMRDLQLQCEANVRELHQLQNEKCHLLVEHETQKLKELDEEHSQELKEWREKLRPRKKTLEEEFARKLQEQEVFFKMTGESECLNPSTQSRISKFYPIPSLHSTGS

[6] = target: Ras-related protein Rab-6A (Homo sapiens, UniProt P20340)
Chain of Ras-related protein Rab-6A (P20340 whole entry): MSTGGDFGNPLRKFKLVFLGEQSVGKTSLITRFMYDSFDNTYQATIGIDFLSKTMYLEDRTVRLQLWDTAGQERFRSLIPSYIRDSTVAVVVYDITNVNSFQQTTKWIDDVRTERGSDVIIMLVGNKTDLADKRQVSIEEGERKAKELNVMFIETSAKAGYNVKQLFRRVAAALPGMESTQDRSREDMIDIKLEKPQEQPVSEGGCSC

SMILES	Kd [1]	Kd (Pyridoxal kinase)	Kd [4]	Kd [5]	Kd [6]	Kd (Ephrin type-B receptor 2)	Kd [2]	Kd [3]
O=c1[nH]c([C@@H]2CCCN2)nc2c1oc1ccc(Cl)cc12	> 30 µM (inactive)	> 30 µM (inactive)	> 30 µM (inactive)	> 30 µM (inactive)		> 30 µM (inactive)	> 30 µM (inactive)	> 30 µM (inactive)
C=CCn1c(=O)c2cnc(Nc3ccc(N4CCN(C)CC4)cc3)nc2n1-c1cccc(C(C)(C)O)n1 [ADAVOSERTIB]	> 30 µM (inactive)	> 30 µM (inactive)		> 30 µM (inactive)	> 30 µM (inactive)	> 30 µM (inactive)		> 30 µM (inactive)
NC[C@@](O)(c1ccc(Cl)cc1)c1ccc(-c2cn[nH]c2)cc1 [AT-13148]	> 30 µM (inactive)	> 30 µM (inactive)	0.009 µM (active)	> 30 µM (inactive)		> 30 µM (inactive)	> 30 µM (inactive)	> 30 µM (inactive)
C[C@@]1(C(=O)Nc2ccc(F)nc2)CCCN1c1nc(Nc2cc(C3CC3)n[nH]2)c2cccn2n1 [BMS-754807]	> 30 µM (inactive)	> 30 µM (inactive)			> 30 µM (inactive)			
CCOc1ccn(-c2ccc(F)cc2)c(=O)c1C(=O)Nc1ccc(Oc2ccnc(N)c2Cl)c(F)c1 [BMS-777607]	> 30 µM (inactive)	> 30 µM (inactive)	> 30 µM (inactive)	> 30 µM (inactive)	> 30 µM (inactive)	> 30 µM (inactive)		> 30 µM (inactive)
Cn1c(=O)n(-c2ccc(C(C)(C)C#N)cc2)c2c3cc(-c4cnc5ccccc5c4)ccc3ncc21 [DACTOLISIB]	> 30 µM (inactive)	> 30 µM (inactive)		> 30 µM (inactive)	> 30 µM (inactive)	> 30 µM (inactive)		> 30 µM (inactive)
O=S(=O)(c1cccc2cnccc12)N1CCCNCC1 [FASUDIL]	> 30 µM (inactive)	> 30 µM (inactive)			> 30 µM (inactive)	> 30 µM (inactive)		> 30 µM (inactive)
C[C@]1(O)C[C@@H](c2nc(-c3ccc4ccc(-c5ccccc5)nc4c3)c3c(N)nccn32)C1 [LINSITINIB]	4.21 µM (active)	> 30 µM (inactive)			> 30 µM (inactive)	> 30 µM (inactive)	> 30 µM (inactive)	0.01 µM
N#CCNC(=O)c1ccc(-c2ccnc(Nc3ccc(N4CCOCC4)cc3)n2)cc1 [MOMELOTINIB]	> 30 µM (inactive)	> 30 µM (inactive)	> 30 µM (inactive)		> 30 µM (inactive)	> 30 µM (inactive)	0.2 µM (active)	
CC1(C)CNc2cc(NC(=O)c3cccnc3NCc3ccncc3)ccc21 [MOTESANIB]	> 30 µM (inactive)	> 30 µM (inactive)		> 30 µM (inactive)	> 30 µM (inactive)			
CN(c1ncccc1CNc1nc(Nc2ccc3c(c2)CC(=O)N3)ncc1C(F)(F)F)S(C)(=O)=O [PF-00562271]	> 30 µM (inactive)	> 30 µM (inactive)			> 30 µM (inactive)	> 30 µM (inactive)		> 30 µM (inactive)
Cn1cnc2c(F)c(Nc3ccc(Br)cc3Cl)c(C(=O)NOCCO)cc21 [SELUMETINIB]	> 30 µM (inactive)	> 30 µM (inactive)			> 30 µM (inactive)			
C=CCN(/C=C1/C(=O)O[C@H](COC)[C@@]2(C)C1=C(O)C(=O)C1=C2[C@H](OC(C)=O)C[C@]2(C)C(=O)CC[C@@H]12)CC=C [SONOLISIB]	> 30 µM (inactive)	> 30 µM (inactive)	> 30 µM (inactive)	> 30 µM (inactive)		> 30 µM (inactive)	> 30 µM (inactive)	> 30 µM (inactive)
CN1CCN(c2nc(C3=C(c4c[nH]c5ccccc45)C(=O)NC3=O)c3ccccc3n2)CC1 [SOTRASTAURIN]	> 30 µM (inactive)	> 30 µM (inactive)		> 30 µM (inactive)	> 30 µM (inactive)	> 30 µM (inactive)	> 30 µM (inactive)	> 30 µM (inactive)
NC(=O)c1ccc(N(C(N)=O)c2c(F)cccc2F)nc1-c1ccc(F)cc1F [VX-702]	> 30 µM (inactive)	> 30 µM (inactive)	> 30 µM (inactive)	> 30 µM (inactive)	> 30 µM (inactive)	> 30 µM (inactive)	> 30 µM (inactive)	

Continued, in another order:

Kd [1]	Kd (Pyridoxal kinase)	Kd [4]	Kd [5]	Kd [6]	SMILES	Kd (Ephrin type-B receptor 2)	Kd [2]	Kd [3]
> 30 µM (inactive)	> 30 µM (inactive)			> 30 µM (inactive)	CN(C)C/C=C/C(=O)Nc1cc2c(Nc3ccc(F)c(Cl)c3)ncnc2cc1O[C@H]1CCOC1 [AFATINIB]			
> 30 µM (inactive)	> 30 µM (inactive)	> 30 µM (inactive)	> 30 µM (inactive)	0.033 µM	CCN(CCCOc1ccc2c(Nc3cc(CC(=O)Nc4cccc(F)c4)n[nH]3)ncnc2c1)CCOP(=O)(O)O [BARASERTIB]	> 30 µM (inactive)		> 30 µM (inactive)
> 30 µM (inactive)	> 30 µM (inactive)	> 30 µM (inactive)			COc1cccc(Nc2ncnn3ccc(CN4CC[C@@H](N)[C@H](O)C4)c23)c1 [BMS-690514]	> 30 µM (inactive)	> 30 µM (inactive)	> 30 µM (inactive)
> 30 µM (inactive)	> 30 µM (inactive)			> 30 µM (inactive)	COc1cc2c(Oc3ccc4[nH]c(C)cc4c3F)ncnc2cc1OCCCN1CCCC1 [CEDIRANIB]			
> 30 µM (inactive)	> 30 µM (inactive)	> 30 µM (inactive)	> 30 µM (inactive)	> 30 µM (inactive)	C=CC(=O)Nc1cccc(Nc2nc(Nc3ccc(N4CCN(C(C)=O)CC4)cc3OC)ncc2C(F)(F)F)c1 [ROCILETINIB]	> 30 µM (inactive)	> 30 µM (inactive)	
> 30 µM (inactive)	> 30 µM (inactive)	> 30 µM (inactive)		> 30 µM (inactive)	CC(C)(O)CC(=O)NCCn1ccc2ncnc(Nc3ccc(Oc4cccc(C(F)(F)F)c4)c(Cl)c3)c21 [TAK-285]	> 30 µM (inactive)	> 30 µM (inactive)	> 30 µM (inactive)
> 30 µM (inactive)	> 30 µM (inactive)			> 30 µM (inactive)	COc1cc2c(N3CCN(C(=O)Nc4ccc(OC(C)C)cc4)CC3)ncnc2cc1OCCCN1CCCCC1 [TANDUTINIB]			
